Columns and labels:
Type in all cases: cell-based
human cancer cell line = experiment: Human cancer cell line activity compared with Dolastatin 10; details: R-dolaphenine (Doe) substitution
Excerpt: A series of Dolastatin 10 chiral isomers has been documented (See: Pettit et al., J. Med. Chem., 1990, 33, 3132). More recently these experiments were extended to synthesis of R-Doe-isodolastatin 10. […] The amide molecular length was then examined, starting with benzylamine, phenethylamine and 3-phenyl-1-propylamine. Also studied was a systematic series of modifications at the dolaphenine position introducing a substituted nitrogen instead of a phenyl ring.

SF-295 = experiment: NCI human tumor cell line screen, CNS SF-295; details: for GI-50 / TGI: Human cancer cell; for LC-50: Human cancer cells
Excerpt: (§1) Current research in the control of cancer in the United States is coordinated by the National Cancer Institute (NCI). To determine whether a substance has anti-cancer properties, the NCI has established a systematic protocol. This protocol, which involves the testing of a substance against a standard cell line panel containing 60 human tumor cell lines, has been verified and has been accepted in scientific circles. The protocol, and the established statistical means for analyzing the results obtained by the standardized testing are fully described in the literature. See: Body, Dr. Michael R., Principles & Practice of Oncology, PPO Updates, Volume 3, Number 10, October 1989, for an in depth description of the testing protocol; and Paull, K. D., "Display and Analysis of Patterns of Differential Activity of Drugs Against Human Tumor Cell Lines; Development of Mean Graph and COMPARE Algorithm", Journal of the National Cancer Institute Reports, Vol. 81, No. 14, Page 1088, Jul. 14, 1989 for a description of the methods of statistical analysis. Both of these references are incorporated herein by this reference thereto.
(§2) The extraordinary inhibition of cell growth shown by the tetrapeptide 6a-k against six major types of human cancer and against the murine P388 lymphocytic leukemia cell line has been presented in Table 1-2, below.

A498 = experiment: NCI human tumor cell line screen, renal A498; details: for GI-50 / TGI: Human cancer cell; for LC-50: Human cancer cells
Excerpt: as §1, with “This protocol, which involves the testing of a substance against a standard cell line panel containing 60 human tumor cell lines, has been verified and has been accepted in scientific circles.” left out

NCI-460 = experiment: NCI human tumor cell line screen, Lung-NSC NCI-460; details: for GI-50 / TGI: Human cancer cell; for LC-50: Human cancer cells
Excerpt: as §1, with “This protocol, which involves the testing of a substance against a standard cell line panel containing 60 human tumor cell lines, has been verified and has been accepted in scientific circles.” left out

SK-MEL-3 = experiment: NCI human tumor cell line screen, melanoma SK-MEL-3; details: for GI-50 / TGI: Human cancer cell; for LC-50: Human cancer cells
Excerpt: as §1, §2

KM20L2 = experiment: NCI human tumor cell line screen, colon KM20L2; details: for GI-50 / TGI: Human cancer cell; for LC-50: Human cancer cells
Excerpt: as §1, with “This protocol, which involves the testing of a substance against a standard cell line panel containing 60 human tumor cell lines, has been verified and has been accepted in scientific circles.” left out

OVCAR-3 = experiment: NCI human tumor cell line screen, ovarian OVCAR-3; details: for GI-50 / TGI: Human cancer cell; for LC-50: Human cancer cells
Excerpt: as §1, with “This protocol, which involves the testing of a substance against a standard cell line panel containing 60 human tumor cell lines, has been verified and has been accepted in scientific circles.” left out

P-388 = experiment: Murine P388 lymphocytic leukemia cell growth inhibition; details: Mouse leukemia cell P-388
Excerpt: as §2

| Substance | human cancer cell line activity when compared with Dolastatin 10 (human cancer cell line) | GI-50 (SF-295) | TGI (SF-295) | LC-50 (SF-295) | GI-50 (A498) | TGI (A498) | LC-50 (A498) | GI-50 (NCI-460) | TGI (NCI-460) | LC-50 (NCI-460) | GI-50 (SK-MEL-3) | TGI (SK-MEL-3) | LC-50 (SK-MEL-3) | GI-50 (KM20L2) | TGI (KM20L2) | LC-50 (KM20L2) | GI-50 (OVCAR-3) | TGI (OVCAR-3) | LC-50 (OVCAR-3) | ED-50 (P-388) |
| --- | --- | --- | --- | --- | --- | --- | --- | --- | --- | --- | --- | --- | --- | --- | --- | --- | --- | --- | --- | --- |
| R-Doe-isodolastatin 10 | does not result in any significant difference |  |  |  |  |  |  |  |  |  |  |  |  |  |  |  |  |  |  |  |
| [2S-[1[1R*(R*),2S*],2R*[1S*,2S*]]]-N,N-dimethyl-L-valyl-N-[2-methoxy-4-[2-[1-methoxy-2-methyl-3-oxo-3-[[2-(4-chlor-phenyl)-ethyl]amino]propyl]-1-pyrrolidinyl-1-(methylpropyl)-4-oxo butyl]-N-methyl-L-valineamide [Peptide 6c] |  | 0.000010 µg/mL | 1.9 ng/mL | > 0.01 µg/mL | 0.00062 µg/mL | > 10 ng/mL | > 0.01 µg/mL | < 0.000001 µg/mL | 1.1 ng/mL | > 0.01 µg/mL | < 0.000001 µg/mL | > 10 ng/mL | > 0.01 µg/mL | < 0.000001 µg/mL | 1.1 ng/mL | > 0.01 µg/mL | < 0.000001 µg/mL | < 0.001 ng/mL | > 0.01 µg/mL | 0.00553 µg/mL |
| [2S-[1 [1R*(R*),2S*],2R*[1S*,2S*]]]-N,N-dimethyl-L-valyl-N-[2-methoxy-4-[2-[1-methoxy-2-methyl-3-oxo-3-[[2-(4-bromo-phenyl)-ethyl]amino]propyl]-1-pyrrolidinyl-l-(methylpropyl)-4-oxo butyl]-N-methyl-L-valineamide [Peptide 6e] |  | 0.00043 µg/mL | > 10 ng/mL | > 0.01 µg/mL | 0.00046 µg/mL | > 10 ng/mL | > 0.01 µg/mL | 0.00027 µg/mL | 1.2 ng/mL | > 0.01 µg/mL | 0.00038 µg/mL | > 10 ng/mL | > 0.01 µg/mL | 0.00032 µg/mL | 4.1 ng/mL | > 0.01 µg/mL | 0.00015 µg/mL | 0.5 ng/mL | 0.0094 µg/mL | 0.00515 µg/mL |
